Results on 30 molecules are retold here after ChEMBL document CHEMBL1142780, “Phenylpyrroles, a new chemolibrary virtual screening class of 5-HT7 receptor ligands” (Bioorg Med Chem Lett, 2005).

In assay [1] the target is 5-hydroxytryptamine receptor 7 (Rattus norvegicus) (UniProt P32305). The assay can be described thus: Inhibition of the binding of [3H]LSD on rat 5-HT7R expressed in HEK293 cells at concentration of 10e-6 M. The format is cell-based.
Assay [2] shares this target. Description: Inhibition of the binding of [3H]LSD on rat 5-HT7R expressed in HEK293 cells at concentration of 10e-8 M. The assay is classed as cell-based.
Assay [3] addresses T1, 5-hydroxytryptamine receptor 7 (Homo sapiens, UniProt P34969). Description: Inhibition of the binding of [3H]LSD on human 5-HT7R expressed in sf9 cells at concentration of 10e-6 M.
The target in assay [4] is T1, 5-hydroxytryptamine receptor 7. Description: Inhibition of the binding of [3H]LSD on human 5-HT7R expressed in sf9 cells at concentration of 10e-8 M.
Assay [5] addresses 5-hydroxytryptamine receptor 6 (Homo sapiens) (UniProt P50406). The assay can be described thus: Inhibition of the binding of [3H]LSD (radioligand) on human 5-HT6 receptor at concentration of 10e-8 M.
In assay [6] the target is 5-hydroxytryptamine receptor 7 (Rattus norvegicus, UniProt P32305). Description: Binding affinity against rat 5-HT7R expressed in HEK293 cells. The assay is classed as cell-based.
5-hydroxytryptamine receptor 7 (Rattus norvegicus, UniProt P32305), sequence (P32305 whole entry): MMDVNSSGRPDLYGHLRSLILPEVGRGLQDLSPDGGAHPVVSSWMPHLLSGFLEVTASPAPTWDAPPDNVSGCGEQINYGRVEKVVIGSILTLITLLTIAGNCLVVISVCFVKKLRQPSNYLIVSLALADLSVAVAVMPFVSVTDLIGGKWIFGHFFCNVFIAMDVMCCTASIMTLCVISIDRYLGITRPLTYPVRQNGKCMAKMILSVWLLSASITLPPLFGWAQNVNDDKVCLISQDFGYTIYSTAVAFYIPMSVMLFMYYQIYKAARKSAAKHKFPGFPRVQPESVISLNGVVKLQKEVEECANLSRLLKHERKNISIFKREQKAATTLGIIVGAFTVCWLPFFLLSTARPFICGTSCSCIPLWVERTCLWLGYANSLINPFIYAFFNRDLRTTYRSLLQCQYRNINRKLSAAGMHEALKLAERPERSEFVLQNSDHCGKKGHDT
The target of assay [7] is T1, 5-hydroxytryptamine receptor 7. The assay can be described thus: Binding affinity against Human 5-HT7R expressed in sf9 cells.
Assay [8] has as its target 5-hydroxytryptamine receptor 6 (Homo sapiens) (UniProt P50406). The assay can be described thus: Inhibition of the binding of [3H]LSD (radioligand) on human 5-HT6 receptor at concentration of 10e-6 M.
The target of assay [9] is T2, 5-hydroxytryptamine receptor 1A (Rattus norvegicus, UniProt P19327).
T2 sequence (P19327 whole entry): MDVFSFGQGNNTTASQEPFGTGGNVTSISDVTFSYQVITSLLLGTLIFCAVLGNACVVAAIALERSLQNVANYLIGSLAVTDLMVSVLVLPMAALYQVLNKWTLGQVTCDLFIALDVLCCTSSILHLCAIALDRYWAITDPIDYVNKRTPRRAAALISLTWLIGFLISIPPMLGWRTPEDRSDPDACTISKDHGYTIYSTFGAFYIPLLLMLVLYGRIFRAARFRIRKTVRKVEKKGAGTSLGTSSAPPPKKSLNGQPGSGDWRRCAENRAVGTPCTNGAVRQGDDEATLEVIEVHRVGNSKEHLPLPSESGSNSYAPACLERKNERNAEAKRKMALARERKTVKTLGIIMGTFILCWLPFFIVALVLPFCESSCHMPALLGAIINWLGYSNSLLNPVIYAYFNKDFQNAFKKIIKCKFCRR
Description: Binding affinity against rat 5-HT1A receptor.

Assay [10] concerns the target 5-hydroxytryptamine receptor 7 (Rattus norvegicus) (UniProt P32305). Description: Inhibition of the binding of [3H]LSD on rat 5-HT7R in HEK293 cells at concentration of 10e-8 M. The assay is classed as cell-based.
Assay [11] has the same target. Description: Inhibition of the binding of [3H]LSD on rat 5-HT7R in HEK293 cells at concentration of 10e-6 M. The assay is classed as cell-based.
For assay [12], the target named is T1, 5-hydroxytryptamine receptor 7.
Description: PKb value against Human 5-HT7 receptor

5-hydroxytryptamine receptor 6 (Homo sapiens), sequence (P50406 whole entry): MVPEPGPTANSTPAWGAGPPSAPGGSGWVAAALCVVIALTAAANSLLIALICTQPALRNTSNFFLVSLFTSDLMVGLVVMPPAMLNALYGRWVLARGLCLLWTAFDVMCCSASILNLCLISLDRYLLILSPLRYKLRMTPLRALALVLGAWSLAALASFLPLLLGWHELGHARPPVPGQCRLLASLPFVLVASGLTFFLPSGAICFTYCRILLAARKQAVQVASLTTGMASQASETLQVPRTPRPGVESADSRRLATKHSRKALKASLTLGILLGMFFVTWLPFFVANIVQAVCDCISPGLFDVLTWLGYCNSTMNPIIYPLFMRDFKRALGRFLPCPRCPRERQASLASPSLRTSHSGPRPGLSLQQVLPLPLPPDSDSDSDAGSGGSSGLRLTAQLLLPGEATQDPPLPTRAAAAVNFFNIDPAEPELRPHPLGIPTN
T1 sequence (P34969 whole entry): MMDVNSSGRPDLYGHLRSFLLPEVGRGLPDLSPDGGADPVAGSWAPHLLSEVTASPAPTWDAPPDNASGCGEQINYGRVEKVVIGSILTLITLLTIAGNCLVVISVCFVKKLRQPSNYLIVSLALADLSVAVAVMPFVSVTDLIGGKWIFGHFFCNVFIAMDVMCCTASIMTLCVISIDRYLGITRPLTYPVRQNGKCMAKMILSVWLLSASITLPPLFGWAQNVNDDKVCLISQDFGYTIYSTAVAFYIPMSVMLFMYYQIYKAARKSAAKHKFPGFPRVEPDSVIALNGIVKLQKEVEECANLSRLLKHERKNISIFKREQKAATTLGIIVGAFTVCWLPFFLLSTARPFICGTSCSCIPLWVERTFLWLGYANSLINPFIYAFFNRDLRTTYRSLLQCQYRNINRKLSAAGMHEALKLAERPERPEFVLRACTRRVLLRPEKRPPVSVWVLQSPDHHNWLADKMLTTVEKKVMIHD
5-hydroxytryptamine receptor 7 (Rattus norvegicus), sequence (P32305 whole entry): as the sequence (P32305 whole entry) above

Broadly, the inhibition is the share of the control response that was lost under treatment. The low end stands for a response near the control, the high end for a response far below the control. Turning to `N#Cc1ccccc1-n1cccc1CN1CCN(c2noc3ccccc23)CC1`, the inhibition is 43% in assay [1] and 1% in [2].
Consider `c1ccc(N2CCN(Cc3cccn3-c3ccccc3)CC2)cc1`, for which the inhibition was determined as 71% in assay [3] and 14% in [4].
As usually defined, the Ki is the equilibrium dissociation constant of an inhibitor or competing ligand from its target. High values mean a looser hold on the target, low ones a stronger hold on the target. With `COc1ccccc1N1CCN(Cc2ccn(-c3ccccc3C)c2)CC1`, the inhibition came out at 7% in assay [5], 9% in assay [8], 22% in [10] and 95% in [11]. In addition, the inhibition constant (Ki) in [6] was determined as 21 nM; in assay [7], 4.7 nM; in assay [9], 9.9 nM.
Regarding `COc1ccccc1N1CCN(Cc2cccn2-c2ccccc2C)CC1`, the inhibition in assay [1] is 63%; in assay [2], 0%.
With `COc1ccccc1N1CCN(Cc2cccn2-c2cccc3ccccc23)CC1`, the inhibition in assay [1] is 60%; in [2] it was 17%.
Turning to `NCCc1cccn1-c1ccccc1Cl`, the inhibition is 58% in assay [3] and 0% in assay [4].
As for `N#Cc1ccccc1-n1ccc(CN2CCN(c3noc4ccccc34)CC2)c1`, the inhibition in assay [10] is 7%; in assay [11], 34%.
On to `COc1ccccc1N1CCN(Cc2ccn(-c3ccccc3C(F)(F)F)c2)CC1`, for which, in assay [6], the Ki was found to be 105 nM. Moreover, the inhibition worked out at 21% in [10] and 91% in [11].
Consider `COc1ccccc1N1CCN(Cc2ccn(-c3ccccc3OC)c2)CC1`, for which the inhibition in assay [10] turned out to be 0%; in assay [11] it was 6%.
For the molecule `COc1ccccc1N1CCN(Cc2ccn(-c3cccc4ccccc34)c2)CC1`, the figures for the inhibition in [10] and in assay [11] were 6% and 86%, respectively.
With `CCOc1ccc(OCC)c(-n2cccc2CCN)c1`, the inhibition in assay [3] is 14%; in assay [4], 0%.
As for `NCCc1cccn1-c1ccccc1`, the values for the inhibition in assay [3] and in assay [4] were 31% and 0%, respectively.
As for `COc1ccccc1N1CCN(Cc2cccn2-c2ccccc2-c2ccccc2)CC1`, the inhibition in [1] amounted to 26%; in assay [2], 0%.
As for `COc1ccccc1N1CCN(Cc2ccn(-c3c(C)cc(C)cc3C)c2)CC1`, the inhibition in assay [10] is 0%; in [11] it was 32%.
As for `Cc1ccccc1-n1cccc1CN1CCN(c2noc3ccccc23)CC1`, the inhibition in assay [1] was 47%; in [2], 0%.
In the case of `COc1ccccc1N1CCN(Cc2ccn(-c3ccccc3C#N)c2)CC1`, the inhibition worked out at 10% in [5], 12% in [8], 14% in [10] and 96% in [11]. In addition, the inhibition constant (Ki) came out at 19 nM in assay [6], 5.4 nM in assay [7] and 33.7 nM in [9]. This molecule showed a PKb in assay [12] of 7.43.
Turning to `Cc1cccc(-n2cccc2CN2CCN(C)CC2)c1C`, the inhibition came out at 33% in assay [1] and 0% in assay [2].
For `COc1ccc(-n2cccc2CCN)cc1`, the inhibition in assay [3] was 36%; in assay [4], 3%.
As to `COc1ccccc1N1CCN(Cc2cccn2-c2ccccc2C#N)CC1`, the inhibition was 24% in assay [1] and 0% in assay [2].
Regarding `Cc1cccc(-n2cccc2CCN)c1C`, the inhibition in assay [3] was determined as 72%; in [4] it was 0%.
Turning to `COc1ccccc1N1CCN(Cc2ccn(-c3cccc(C)c3C)c2)CC1`, the results for the inhibition in assay [10] and in [11] were 0% and 91%, respectively.
On to `COc1ccc(OC)c(-n2cccc2CCN)c1`, for which the inhibition in assay [3] turned out to be 31%; in [4], 6%.
`COC(=O)c1cccc(C)c1-n1ccc(CN2CCN(c3ccccc3OC)CC2)c1`: the values for the inhibition in assay [5] and in [8] were 9% and 20%, respectively. This molecule also yielded a PKb in assay [12] of 7.66. Moreover, the results for the Ki in assay [7] and in assay [9] were 18 nM and 18.5 nM, respectively.
For the molecule `COc1ccccc1N1CCN(Cc2cccn2-c2ccc(Cl)cc2Cl)CC1`, the inhibition came to 66% in [3] and 0% in assay [4].
For `Cc1ccccc1-n1ccc(CN2CCN(c3noc4ccccc34)CC2)c1`, the inhibition worked out at 9% in assay [10] and 42% in assay [11].
In the case of `COc1ccccc1N1CCN(Cc2cccn2-c2ccccc2)CC1`, the inhibition turned out to be 91% in [3] and 0% in [4].
For the molecule `COc1ccccc1N1CCN(Cc2cccn2-c2ccccc2C(F)(F)F)CC1`, the inhibition in [1] stood at 38%; in [2], 7%.
For `COc1ccccc1-n1cccc1CN1CCN(C)CC1`, the inhibition in assay [1] came to 12%; in assay [2], 0%.
As to `COc1ccccc1N1CCN(Cc2cccn2-c2ccccc2OC)CC1`, the results for the inhibition in [1] and in [2] were 80% and 16%, respectively.
`COc1ccccc1N1CCN(Cc2cccn2-c2cccc(C)c2C)CC1`: the inhibition in assay [1] is 68%; in assay [2], 2%.
